Data on 45 compounds can be found in patent publication US20050222200A1, “AMIDE DERIVATIVES AS ION CHANNEL LIGANDS AND PHARMACEUTICAL COMPOSITIONS AND METHODS OF USING THE SAME” (Renovis, Inc., priority 2003, published 2005).

The target of this assay is T1, VR1 (Homo sapiens, UniProt Q8NER1).
T1 construct: expressed in transfected cells; host or cells: 293 cells ("293 neurons" [sic])
T1 sequence (Q8NER1 whole entry, species assumed): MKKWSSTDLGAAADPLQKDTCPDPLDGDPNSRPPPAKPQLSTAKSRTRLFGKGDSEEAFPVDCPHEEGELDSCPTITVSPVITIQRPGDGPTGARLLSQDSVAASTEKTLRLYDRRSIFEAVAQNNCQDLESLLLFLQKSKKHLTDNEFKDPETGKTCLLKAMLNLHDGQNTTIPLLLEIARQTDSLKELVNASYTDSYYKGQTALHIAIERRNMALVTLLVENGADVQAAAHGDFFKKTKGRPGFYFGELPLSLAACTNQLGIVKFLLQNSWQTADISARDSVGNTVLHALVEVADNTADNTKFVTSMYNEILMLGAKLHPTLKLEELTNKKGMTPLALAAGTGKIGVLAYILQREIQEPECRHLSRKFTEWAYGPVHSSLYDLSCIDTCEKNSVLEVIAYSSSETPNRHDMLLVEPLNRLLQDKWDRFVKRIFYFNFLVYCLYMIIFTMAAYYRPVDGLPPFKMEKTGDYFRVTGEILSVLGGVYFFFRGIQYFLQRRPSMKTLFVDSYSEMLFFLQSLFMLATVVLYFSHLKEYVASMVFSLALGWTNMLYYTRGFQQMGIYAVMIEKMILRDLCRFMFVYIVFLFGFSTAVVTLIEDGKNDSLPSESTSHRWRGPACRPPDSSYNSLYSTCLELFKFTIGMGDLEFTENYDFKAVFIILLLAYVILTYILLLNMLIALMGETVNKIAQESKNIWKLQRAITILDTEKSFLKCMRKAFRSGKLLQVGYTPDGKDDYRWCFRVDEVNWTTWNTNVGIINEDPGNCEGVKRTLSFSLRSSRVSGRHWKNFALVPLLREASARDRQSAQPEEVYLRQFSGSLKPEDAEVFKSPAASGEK
The experiment in a line: High throughput calcium imaging assay of VR1 antagonists (Fura2, Flex Station, 96 well). Also: test concentration or dose not given here. It counts as cell-based. Particulars: Table 1 activity class.
`COc1ccc(NC(=O)c2ccc(/C=C/C(C)(C)C)cc2)cn1` [Compound 75]: the “inhibition of calcium ion influx induced by capsaicin stimulation” value (“inhibition of calcium ion influx induced” for short) is on record as “++ (compound exhibited 25-50% inhibition of calcium ion influx induced by capsaicin stimulation)”.
Under `CC(C)(C)/C=C/c1ccc(C(=O)Nc2ccnc(Cl)c2)cc1` [Compound 76] stands “++++ (compound exhibited 75% or greater inhibition of calcium ion influx induced by capsaicin stimulation)”; under `Cc1nccc(NC(=O)c2ccc(/C=C/C(C)(C)C)cc2)n1` [Compound 77], “+ (compound exhibited 0-25% inhibition of calcium ion influx induced by capsaicin stimulation)”; under `CC(C)(C)/C=C/c1ccc(C(=O)Nc2ccc3ncccc3c2)cc1` [Compound 78], “++++ (compound exhibited 75% or greater inhibition of calcium ion influx induced by capsaicin stimulation)”.
Under `CC(C)(C)/C=C/c1ccc(C(=O)NCc2cccnc2)cc1` [Compound 80] stands “+ (compound exhibited 0-25% inhibition of calcium ion influx induced by capsaicin stimulation)”; under `CN(C)c1ccc(CNC(=O)c2ccc(/C=C/C(C)(C)C)cc2)cc1` [Compound 81], “+ (compound exhibited 0-25% inhibition of calcium ion influx induced by capsaicin stimulation)”; under `COc1ccccc1CNC(=O)c1ccc(/C=C/C(C)C)cc1` [Compound 87], “+ (compound exhibited 0-25% inhibition of calcium ion influx induced by capsaicin stimulation)”.
In the case of `CC(C)/C=C/c1ccc(C(=O)NCc2ccco2)cc1` [Compound 88], the “inhibition of calcium ion influx induced” value is on record as “++ (compound exhibited 25-50% inhibition of calcium ion influx induced by capsaicin stimulation)”.
Consider `CC(C)/C=C/c1ccc(C(=O)NCc2ccncc2)cc1` [Compound 93], for which the “inhibition of calcium ion influx induced” value is reported as “+ (compound exhibited 0-25% inhibition of calcium ion influx induced by capsaicin stimulation)”.
For `CC(C)/C=C/c1ccc(C(=O)NC(c2ccccc2)c2ccccc2)cc1` [Compound 95] the value was “++ (compound exhibited 25-50% inhibition of calcium ion influx induced by capsaicin stimulation)”; for `CC(C)/C=C/c1ccc(C(=O)NCCc2ccccc2Cl)cc1` [Compound 98], “+ (compound exhibited 0-25% inhibition of calcium ion influx induced by capsaicin stimulation)”; for `CC(C)/C=C/c1ccc(C(=O)Nc2ccncc2)cc1` [Compound 105], “++ (compound exhibited 25-50% inhibition of calcium ion influx induced by capsaicin stimulation)”.
For `CC(C)/C=C/c1ccc(C(=O)Nc2cccnc2)cc1` [Compound 106] the value was “++ (compound exhibited 25-50% inhibition of calcium ion influx induced by capsaicin stimulation)”; for `CC(C)/C=C/c1ccc(C(=O)NCC2CCCO2)cc1` (stereo not drawn) [Compound 109], “++ (compound exhibited 25-50% inhibition of calcium ion influx induced by capsaicin stimulation)”; for `CC(C)/C=C/c1ccc(C(=O)NCc2ccc3c(c2)OCO3)cc1` [Compound 111], “+++ (compound exhibited 50-75% inhibition of calcium ion influx induced by capsaicin stimulation)”.
Under `CC(C)/C=C/c1ccc(C(=O)NCCN2CCOCC2)cc1` [Compound 112] stands “++ (compound exhibited 25-50% inhibition of calcium ion influx induced by capsaicin stimulation)”; under `CC(C)/C=C/c1ccc(C(=O)NCCc2ccc(S(N)(=O)=O)cc2)cc1` [Compound 116], “+ (compound exhibited 0-25% inhibition of calcium ion influx induced by capsaicin stimulation)”.
As to `COc1cc(CNC(=O)c2ccc(/C=C/C(C)C)cc2)cc(OC)c1OC` [Compound 117], the “inhibition of calcium ion influx induced” value was “+ (compound exhibited 0-25% inhibition of calcium ion influx induced by capsaicin stimulation)”.
For `CC(C)/C=C/c1ccc(C(=O)NCc2ccccn2)cc1` [Compound 120] the value was “+ (compound exhibited 0-25% inhibition of calcium ion influx induced by capsaicin stimulation)”.
For `COc1ccc(CCNC(=O)c2ccc(/C=C/C(C)C)cc2)cc1OC` [Compound 121] the value was “+++ (compound exhibited 50-75% inhibition of calcium ion influx induced by capsaicin stimulation)”; for `CC(C)/C=C/c1ccc(C(=O)NCCc2c[nH]c3ccccc23)cc1` [Compound 123], “+ (compound exhibited 0-25% inhibition of calcium ion influx induced by capsaicin stimulation)”; for `CC(C)/C=C/c1ccc(C(=O)NCCN2CCNCC2)cc1` [Compound 125], “++++ (compound exhibited 75% or greater inhibition of calcium ion influx induced by capsaicin stimulation)”.
For `CCNC(=O)c1ccc(/C=C/C(C)C)cc1` [Compound 126] the value was “++ (compound exhibited 25-50% inhibition of calcium ion influx induced by capsaicin stimulation)”; for `CC(C)/C=C/c1ccc(C(=O)NCc2cccs2)cc1` [Compound 127], “++ (compound exhibited 25-50% inhibition of calcium ion influx induced by capsaicin stimulation)”.
In the case of `CCN(CC)c1ccc(NC(=O)c2ccc(/C=C/C(C)C)cc2)cc1` [Compound 130], the “inhibition of calcium ion influx induced” value is on record as “+++ (compound exhibited 50-75% inhibition of calcium ion influx induced by capsaicin stimulation)”.
For `COc1ccccc1NC(=O)c1ccc(/C=C/C(C)C)cc1` [Compound 132] the value was “+ (compound exhibited 0-25% inhibition of calcium ion influx induced by capsaicin stimulation)”.
For `CC(C)/C=C/c1ccc(C(=O)Nc2ccccc2Cl)cc1` [Compound 136] the value was “+ (compound exhibited 0-25% inhibition of calcium ion influx induced by capsaicin stimulation)”.
Under `CC(C)/C=C/c1ccc(C(=O)NCC(C)C)cc1` [Compound 139] stands “+ (compound exhibited 0-25% inhibition of calcium ion influx induced by capsaicin stimulation)”.
In the case of `COc1ccc(CNC(=O)c2ccc(/C=C/C(C)C)cc2)cc1OC` [Compound 142], the “inhibition of calcium ion influx induced” value is on record as “+ (compound exhibited 0-25% inhibition of calcium ion influx induced by capsaicin stimulation)”.
For `CC(C)/C=C/c1ccc(C(=O)NCc2cccc(F)c2)cc1` [Compound 143] the value was “+ (compound exhibited 0-25% inhibition of calcium ion influx induced by capsaicin stimulation)”; for `COc1ccc(NC(=O)c2ccc(/C=C/C(C)C)cc2)cc1Cl` [Compound 145], “+ (compound exhibited 0-25% inhibition of calcium ion influx induced by capsaicin stimulation)”.
Under `CC(C)/C=C/c1ccc(C(=O)Nc2ccc(Cl)c(C(F)(F)F)c2)cc1` [Compound 148] stands “+ (compound exhibited 0-25% inhibition of calcium ion influx induced by capsaicin stimulation)”; under `CC(C)/C=C/c1ccc(C(=O)Nc2cccc(C#N)c2)cc1` [Compound 150], “++ (compound exhibited 25-50% inhibition of calcium ion influx induced by capsaicin stimulation)”; under `CC(C)/C=C/c1ccc(C(=O)Nc2ccccc2CCO)cc1` [Compound 151], “+++ (compound exhibited 50-75% inhibition of calcium ion influx induced by capsaicin stimulation)”.
Under `CC(C)/C=C/c1ccc(C(=O)Nc2ccc(C(C)C)cc2)cc1` [Compound 153] stands “++++ (compound exhibited 75% or greater inhibition of calcium ion influx induced by capsaicin stimulation)”; under `Cc1ccc(NC(=O)c2ccc(/C=C/C(C)C)cc2)c(C)c1` [Compound 156], “+ (compound exhibited 0-25% inhibition of calcium ion influx induced by capsaicin stimulation)”.
As for `CC(C)/C=C/c1ccc(C(=O)Nc2ccc3[nH]ccc3c2)cc1` [Compound 158], the “inhibition of calcium ion influx induced” value is on record as “++ (compound exhibited 25-50% inhibition of calcium ion influx induced by capsaicin stimulation)”.
Under `CCC(C)(C)NC(=O)c1ccc(/C=C/C(C)C)cc1` [Compound 164] stands “+ (compound exhibited 0-25% inhibition of calcium ion influx induced by capsaicin stimulation)”.
Under `CC(C)/C=C/c1ccc(C(=O)Nc2ccc(Cl)nc2)cc1` [Compound 166] stands “+ (compound exhibited 0-25% inhibition of calcium ion influx induced by capsaicin stimulation)”.
Under `CC(C)/C=C/c1ccc(C(=O)Nc2ccnc(Cl)c2)cc1` [Compound 168] stands “+ (compound exhibited 0-25% inhibition of calcium ion influx induced by capsaicin stimulation)”.
With `CC(C)/C=C/c1ccc(C(=O)Nc2ccc3c(c2)OCO3)cc1` [Compound 169], the “inhibition of calcium ion influx induced” value is recorded as “+++ (compound exhibited 50-75% inhibition of calcium ion influx induced by capsaicin stimulation)”.
Consider `CC(C)/C=C/c1ccc(C(=O)Nc2ccc3ncccc3c2)cc1` [Compound 171], for which the “inhibition of calcium ion influx induced” value was “++ (compound exhibited 25-50% inhibition of calcium ion influx induced by capsaicin stimulation)”.
Take `CCn1c2ccccc2c2cc(NC(=O)c3ccc(/C=C/C(C)C)cc3)ccc21` [Compound 172]: the “inhibition of calcium ion influx induced” value was “++ (compound exhibited 25-50% inhibition of calcium ion influx induced by capsaicin stimulation)”.
For `CC(C)/C=C/c1ccc(C(=O)Nc2ccc3c(c2)Cc2ccccc2-3)cc1` [Compound 175] the value was “+ (compound exhibited 0-25% inhibition of calcium ion influx induced by capsaicin stimulation)”.
Consider `CCC/C=C/c1ccc(C(=O)NC(C)C)cc1` [Compound 179], for which the “inhibition of calcium ion influx induced” value is recorded as “+ (compound exhibited 0-25% inhibition of calcium ion influx induced by capsaicin stimulation)”.
